From ChEMBL document CHEMBL2176970, “Discovery and optimization of a series of 3-(3-phenyl-3H-imidazo[4,5-b]pyridin-2-yl)pyridin-2-amines: orally bioavailable, selective, and potent ATP-independent Akt inhibitors” (J Med Chem, 2012)
Calls of active or inactive are those of the source. The rule behind the calls is not given here.

Tests used:
[1] = target: T1, RAC-gamma serine/threonine-protein kinase (Homo sapiens, UniProt Q9Y243); experiment: Inhibition of Akt3 (1 to 479) expressed in Sf9 cells using biotin-GRPRTSSFAEG as substrate after 20 mins by Alpha-screen assay
Cytochrome P450 2C19 = Cytochrome P450 2C19 (Homo sapiens, UniProt P33261); experiment: Inhibition of CYP2C19 in human liver microsomes using S-mephenytoin as substrate after 10 mins; assay type: ADME, Microsome
AN3-CA = experiment: Antiproliferative activity against human AN3CA cells after 72 hrs by MTS assay; assay type: functional, cell-based
[2] = target: T2, RAC-beta serine/threonine-protein kinase (Homo sapiens, UniProt P31751); experiment: Binding affinity to Akt2 (1 to 481) expressed in Sf9 cells assessed as change in melting temperature at 15 uM
Cytochrome P450 2C8 = target: T3, Cytochrome P450 2C8 (Homo sapiens, UniProt P10632); experiment: Inhibition of CYP2C8 in human liver microsomes using paclitaxel as substrate after 10 mins; assay type: ADME, Microsome
T3 sequence (P10632 whole entry): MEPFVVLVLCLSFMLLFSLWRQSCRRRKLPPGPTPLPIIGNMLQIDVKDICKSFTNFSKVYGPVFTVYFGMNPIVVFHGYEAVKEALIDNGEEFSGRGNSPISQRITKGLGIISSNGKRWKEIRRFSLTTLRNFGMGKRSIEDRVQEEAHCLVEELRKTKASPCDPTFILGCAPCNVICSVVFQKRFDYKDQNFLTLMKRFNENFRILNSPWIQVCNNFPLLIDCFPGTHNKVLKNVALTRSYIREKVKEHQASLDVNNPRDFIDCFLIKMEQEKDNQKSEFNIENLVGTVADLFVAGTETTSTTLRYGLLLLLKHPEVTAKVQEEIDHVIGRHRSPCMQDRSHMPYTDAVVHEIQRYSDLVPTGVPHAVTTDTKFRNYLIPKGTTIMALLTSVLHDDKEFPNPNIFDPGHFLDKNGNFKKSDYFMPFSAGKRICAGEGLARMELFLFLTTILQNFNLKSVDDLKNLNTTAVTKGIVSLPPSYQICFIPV

[3] = target: T1, RAC-gamma serine/threonine-protein kinase; experiment: Binding affinity to Akt3 (1 to 479) expressed in Sf9 cells assessed as change in melting temperature at 15 uM
[4] = target: T4, RAC-alpha serine/threonine-protein kinase (Homo sapiens, UniProt P31749); experiment: Inhibition of Akt1 in human A2780 cells assessed as phosphorylation PRAS40 at T246 after 2 hrs by Western Blot analysis; assay type: cell-based
[5] = target: T4, RAC-alpha serine/threonine-protein kinase; experiment: Inhibition of Akt1 in human AN3CA cells assessed as phosphorylation of Akt at S473 after 2 hrs by Western Blot analysis; assay type: cell-based, AN3-CA
[6] = Half life in male CD1 mouse liver microsomes at 1 uM by LC/MS/MS; assay type: ADME, Microsome
[7] = target: T4, RAC-alpha serine/threonine-protein kinase; experiment: Inhibition of Akt 1 in human AN3CA cells assessed as phosphorylation of Akt at T308 after 2 hrs by Western Blot analysis; assay type: cell-based, AN3-CA
[8] = Half life in female CD1 mouse liver microsomes at 1 uM by LC/MS/MS; assay type: ADME, Microsome
Mus musculus [9] = experiment: Inhibition of Akt in human AN3CA cells xenografted NCr mouse assessed as reduction of Akt phosphorylation at T308 in tumor at 100 mg/kg, po after 2 hrs; assay type: functional; details: AN3-CA
[10] = Half life in human liver microsomes at 1 uM by LC/MS/MS; assay type: ADME, Microsome
Cytochrome P450 1A2 = target: T5, Cytochrome P450 1A2 (Homo sapiens, UniProt P05177); experiment: Inhibition of CYP1A2 in human liver microsomes using phenacetin as substrate after 10 mins; assay type: ADME, Microsome
T5 sequence (P05177 whole entry): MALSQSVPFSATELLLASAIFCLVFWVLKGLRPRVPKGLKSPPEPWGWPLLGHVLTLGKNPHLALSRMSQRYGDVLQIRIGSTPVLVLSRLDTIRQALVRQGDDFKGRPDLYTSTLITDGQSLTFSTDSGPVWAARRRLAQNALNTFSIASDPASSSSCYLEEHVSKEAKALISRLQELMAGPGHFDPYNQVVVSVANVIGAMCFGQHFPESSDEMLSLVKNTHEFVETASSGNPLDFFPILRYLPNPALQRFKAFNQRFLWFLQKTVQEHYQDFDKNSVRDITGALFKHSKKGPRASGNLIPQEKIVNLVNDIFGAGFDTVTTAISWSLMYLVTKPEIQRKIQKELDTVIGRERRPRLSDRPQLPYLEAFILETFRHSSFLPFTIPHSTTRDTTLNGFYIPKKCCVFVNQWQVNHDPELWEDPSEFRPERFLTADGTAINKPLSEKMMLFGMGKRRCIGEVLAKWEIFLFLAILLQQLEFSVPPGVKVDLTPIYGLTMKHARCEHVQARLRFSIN

[11] = Oral bioavailability in NCr mouse at 100 mg/kg; assay type: ADME, organism-based; details: in vivo
[12] = target: T4, RAC-alpha serine/threonine-protein kinase; details: Sf9
[13] = target: T4, RAC-alpha serine/threonine-protein kinase; experiment: Inhibition of Akt1 in human A2780 cells assessed as phosphorylation of Akt at S473 after 2 hrs by Western Blot analysis; assay type: cell-based
Cytochrome P450 2D6 = Cytochrome P450 2D6 (Homo sapiens, UniProt P10635); experiment: Inhibition of CYP2D6 in human liver microsomes using bufuralol as substrate after 10 mins; assay type: ADME, Microsome
[14] = target: T2, RAC-beta serine/threonine-protein kinase; experiment: Inhibition of Akt2 (1 to 481) expressed in Sf9 cells using biotin-GRPRTSSFAEG as substrate after 20 mins by Alpha-screen assay
[15] = Plasma concentration in CD1 mouse at 100 mg/kg, po after 2 hrs by LC/MS/MS analysis; assay type: ADME, organism-based; design: dose 100 mg/kg, route oral
[16] = target: T4, RAC-alpha serine/threonine-protein kinase; experiment: Inhibition of Akt1 in human AN3CA cells assessed as phosphorylation PRAS40 at T246 after 2 hrs by Western Blot analysis; assay type: cell-based, AN3-CA
[17] = target: T4, RAC-alpha serine/threonine-protein kinase; experiment: Inhibition of Akt1 (1 to 480) expressed in Sf9 cells using biotin-GRPRTSSFAEG as substrate after 20 mins by Alpha-screen assay
[18] = target: T4, RAC-alpha serine/threonine-protein kinase; experiment: Inhibition of Akt 1 in human A2780 cells assessed as phosphorylation of Akt at T308 after 2 hrs by Western Blot analysis; assay type: cell-based
Mus musculus [19] = experiment: Inhibition of Akt in human AN3CA cells xenografted NCr mouse assessed as reduction of Akt phosphorylation at S473 in tumor at 100 mg/kg, po after 2 hrs; assay type: functional; details: AN3-CA
Mus musculus [20] = experiment: Inhibition of Akt in human AN3CA cells xenografted NCr mouse assessed as reduction of p70S6 phosphorylation at T389 in tumor at 100 mg/kg, po after 2 hrs; assay type: functional; details: AN3-CA
[21] = Drug level in human AN3CA cells xenografted NCr mouse tumor at 100 mg/kg, po after 2 hrs; assay type: ADME, organism-based, Neoplasm, AN3-CA; design: dose 100 mg/kg, route oral; details: read-out: Drug uptake
Cytochrome P450 3A4 = Cytochrome P450 3A4 (Homo sapiens, UniProt P08684); experiment: Inhibition of CYP3A4 in human liver microsomes using midazolam as substrate after 10 mins; assay type: ADME, Microsome
Cytochrome P450 2C9 = Cytochrome P450 2C9 (Homo sapiens, UniProt P11712); experiment: Inhibition of CYP2C9 in human liver microsomes using tolbutamide as substrate after 10 mins; assay type: ADME, Microsome
A2780 = experiment: Antiproliferative activity against human A2780 cells after 72 hrs by MTS assay; assay type: functional, cell-based; details: A2780, 72 h
Mus musculus [22] = experiment: Inhibition of Akt in human AN3CA cells xenografted NCr mouse assessed as reduction of p70S6 phosphorylation at T389 in tumor at 250 mg/kg, po after 4 hrs; assay type: functional; details: AN3-CA
[23] = Plasma concentration in CD1 mouse at 250 mg/kg, po after 2 hrs by LC/MS/MS analysis; assay type: ADME, organism-based; design: dose 250 mg/kg, route oral
[24] = target: T4, RAC-alpha serine/threonine-protein kinase; experiment: Binding affinity to Akt1 (1 to 480) expressed in Sf9 cells by SPR analysis
[25] = Drug level in human AN3CA cells xenografted NCr mouse tumor at 250 mg/kg, po after 2 hrs; assay type: ADME, organism-based, Neoplasm, AN3-CA; design: dose 250 mg/kg, route oral; details: read-out: Drug uptake
[26] = Plasma concentration in CD1 mouse at 250 mg/kg, po after 4 hrs by LC/MS/MS analysis; assay type: ADME, organism-based; design: dose 250 mg/kg, route oral
Mus musculus [27] = experiment: Inhibition of Akt in human AN3CA cells xenografted NCr mouse assessed as reduction of Akt phosphorylation at T308 in tumor at 250 mg/kg, po after 4 hrs; assay type: functional; details: AN3-CA
Mus musculus [28] = experiment: Inhibition of Akt in human AN3CA cells xenografted NCr mouse assessed as reduction of Akt phosphorylation at T308 in tumor at 250 mg/kg, po after 2 hrs; assay type: functional; details: AN3-CA
[29] = Drug level in human AN3CA cells xenografted NCr mouse tumor at 250 mg/kg, po after 4 hrs; assay type: ADME, organism-based, Neoplasm, AN3-CA; design: dose 250 mg/kg, route oral; details: read-out: Drug uptake
Mus musculus [30] = experiment: Inhibition of Akt in human AN3CA cells xenografted NCr mouse assessed as reduction of p70S6 phosphorylation at T389 in tumor at 250 mg/kg, po after 2 hrs; assay type: functional; details: AN3-CA
Mus musculus [31] = experiment: Inhibition of Akt in human AN3CA cells xenografted NCr mouse assessed as reduction of Akt phosphorylation at S473 in tumor at 250 mg/kg, po after 2 hrs; assay type: functional; details: AN3-CA
Mus musculus [32] = experiment: Inhibition of Akt in human AN3CA cells xenografted NCr mouse assessed as reduction of Akt phosphorylation at S473 in tumor at 250 mg/kg, po after 4 hrs; assay type: functional; details: AN3-CA
[33] = target: T4, RAC-alpha serine/threonine-protein kinase; experiment: Inhibition of Akt1 (1 to 480) expressed in Sf9 cells in presence of A674563

T2 sequence (P31751 whole entry): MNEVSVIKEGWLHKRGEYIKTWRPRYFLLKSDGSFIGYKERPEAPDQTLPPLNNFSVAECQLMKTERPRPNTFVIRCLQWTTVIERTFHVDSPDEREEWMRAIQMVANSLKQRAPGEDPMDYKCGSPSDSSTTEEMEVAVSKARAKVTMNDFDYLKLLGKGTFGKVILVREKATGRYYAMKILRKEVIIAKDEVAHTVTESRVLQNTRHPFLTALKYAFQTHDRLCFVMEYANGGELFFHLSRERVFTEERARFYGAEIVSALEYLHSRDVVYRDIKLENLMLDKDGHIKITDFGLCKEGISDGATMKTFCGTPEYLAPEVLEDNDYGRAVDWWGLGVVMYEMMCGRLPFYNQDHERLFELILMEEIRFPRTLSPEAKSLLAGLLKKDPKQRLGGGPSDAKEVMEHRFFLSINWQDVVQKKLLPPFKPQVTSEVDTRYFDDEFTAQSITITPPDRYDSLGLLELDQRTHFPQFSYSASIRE
T4 sequence (P31749 whole entry): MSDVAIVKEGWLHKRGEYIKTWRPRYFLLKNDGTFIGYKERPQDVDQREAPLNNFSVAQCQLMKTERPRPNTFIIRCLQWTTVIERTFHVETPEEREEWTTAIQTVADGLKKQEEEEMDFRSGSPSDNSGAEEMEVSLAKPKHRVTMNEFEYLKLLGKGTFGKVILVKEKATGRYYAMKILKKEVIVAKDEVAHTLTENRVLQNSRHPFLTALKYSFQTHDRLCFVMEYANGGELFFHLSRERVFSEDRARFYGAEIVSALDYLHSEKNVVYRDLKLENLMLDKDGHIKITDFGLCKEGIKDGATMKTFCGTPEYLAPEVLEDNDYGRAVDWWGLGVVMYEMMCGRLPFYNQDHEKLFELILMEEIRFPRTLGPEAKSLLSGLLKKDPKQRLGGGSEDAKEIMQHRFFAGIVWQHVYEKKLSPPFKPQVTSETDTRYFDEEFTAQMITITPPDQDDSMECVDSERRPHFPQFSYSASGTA
T1 sequence (Q9Y243 whole entry): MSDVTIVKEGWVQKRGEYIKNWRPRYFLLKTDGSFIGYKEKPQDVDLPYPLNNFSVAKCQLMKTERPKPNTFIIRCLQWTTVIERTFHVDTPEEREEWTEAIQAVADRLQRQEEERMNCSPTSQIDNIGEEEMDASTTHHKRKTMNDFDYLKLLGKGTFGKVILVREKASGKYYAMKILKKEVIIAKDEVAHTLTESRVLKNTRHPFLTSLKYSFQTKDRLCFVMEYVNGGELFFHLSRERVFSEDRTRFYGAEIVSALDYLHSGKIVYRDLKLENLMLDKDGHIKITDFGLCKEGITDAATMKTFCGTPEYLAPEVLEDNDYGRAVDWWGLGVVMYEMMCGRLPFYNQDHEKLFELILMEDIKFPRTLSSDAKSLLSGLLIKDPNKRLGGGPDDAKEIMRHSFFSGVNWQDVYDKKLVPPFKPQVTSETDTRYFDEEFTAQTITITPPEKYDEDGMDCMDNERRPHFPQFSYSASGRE
Chain of Cytochrome P450 2C19 (P33261 whole entry): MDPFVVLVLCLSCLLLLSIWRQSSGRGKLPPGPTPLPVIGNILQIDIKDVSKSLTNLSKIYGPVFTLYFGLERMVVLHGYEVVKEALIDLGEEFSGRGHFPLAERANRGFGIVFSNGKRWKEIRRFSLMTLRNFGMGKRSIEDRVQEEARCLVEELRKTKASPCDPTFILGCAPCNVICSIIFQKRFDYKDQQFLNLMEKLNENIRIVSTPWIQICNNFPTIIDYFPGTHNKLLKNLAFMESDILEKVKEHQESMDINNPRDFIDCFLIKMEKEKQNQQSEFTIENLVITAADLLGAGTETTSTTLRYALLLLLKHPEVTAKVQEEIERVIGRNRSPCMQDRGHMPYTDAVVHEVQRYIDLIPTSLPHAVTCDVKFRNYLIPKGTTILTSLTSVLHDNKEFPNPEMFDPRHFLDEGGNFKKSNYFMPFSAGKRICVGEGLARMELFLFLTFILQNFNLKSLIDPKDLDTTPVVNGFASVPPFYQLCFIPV
Chain of Cytochrome P450 2D6 (P10635 whole entry): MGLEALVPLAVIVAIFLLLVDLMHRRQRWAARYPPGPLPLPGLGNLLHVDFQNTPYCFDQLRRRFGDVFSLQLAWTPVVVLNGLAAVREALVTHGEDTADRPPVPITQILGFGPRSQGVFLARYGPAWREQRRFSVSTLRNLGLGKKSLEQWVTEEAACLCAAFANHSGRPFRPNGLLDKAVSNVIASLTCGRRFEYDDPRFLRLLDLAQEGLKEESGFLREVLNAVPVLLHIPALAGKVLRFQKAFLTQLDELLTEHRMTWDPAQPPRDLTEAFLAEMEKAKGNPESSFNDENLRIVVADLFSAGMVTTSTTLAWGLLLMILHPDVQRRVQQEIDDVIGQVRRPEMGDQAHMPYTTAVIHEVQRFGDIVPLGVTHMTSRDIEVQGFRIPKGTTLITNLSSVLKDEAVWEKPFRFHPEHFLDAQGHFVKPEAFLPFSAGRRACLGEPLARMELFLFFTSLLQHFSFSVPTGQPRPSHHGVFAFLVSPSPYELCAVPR
Chain of Cytochrome P450 2C9 (P11712 whole entry): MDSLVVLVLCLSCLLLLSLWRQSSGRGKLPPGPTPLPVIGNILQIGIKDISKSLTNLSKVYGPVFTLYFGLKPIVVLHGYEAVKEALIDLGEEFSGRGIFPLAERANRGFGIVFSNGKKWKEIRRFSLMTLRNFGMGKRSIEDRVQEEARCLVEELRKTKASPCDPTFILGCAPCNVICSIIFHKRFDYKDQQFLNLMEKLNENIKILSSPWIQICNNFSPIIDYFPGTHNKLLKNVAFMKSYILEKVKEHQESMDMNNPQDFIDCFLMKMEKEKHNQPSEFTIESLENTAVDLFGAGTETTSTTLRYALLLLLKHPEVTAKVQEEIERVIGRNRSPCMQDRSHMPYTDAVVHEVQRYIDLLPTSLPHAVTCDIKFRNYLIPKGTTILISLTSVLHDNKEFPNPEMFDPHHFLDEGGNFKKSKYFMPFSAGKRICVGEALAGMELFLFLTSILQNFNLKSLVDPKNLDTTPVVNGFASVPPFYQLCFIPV
Chain of Cytochrome P450 3A4 (P08684 whole entry): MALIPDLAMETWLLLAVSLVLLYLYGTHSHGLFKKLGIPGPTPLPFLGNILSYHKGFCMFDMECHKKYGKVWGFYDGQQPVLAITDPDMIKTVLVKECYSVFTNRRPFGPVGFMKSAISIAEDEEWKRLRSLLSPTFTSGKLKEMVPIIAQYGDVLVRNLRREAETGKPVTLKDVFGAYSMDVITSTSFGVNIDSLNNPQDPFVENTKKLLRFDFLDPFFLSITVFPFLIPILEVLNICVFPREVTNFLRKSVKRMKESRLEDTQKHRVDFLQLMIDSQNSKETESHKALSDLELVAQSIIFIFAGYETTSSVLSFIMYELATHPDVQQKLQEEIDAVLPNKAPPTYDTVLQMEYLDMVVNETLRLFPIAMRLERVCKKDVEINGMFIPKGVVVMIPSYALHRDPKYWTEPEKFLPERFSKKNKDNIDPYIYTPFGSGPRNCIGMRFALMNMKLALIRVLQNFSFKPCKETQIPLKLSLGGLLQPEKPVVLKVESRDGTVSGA

Row | IC50 [1] | IC50 (Cytochrome P450 2C19) | ΔTm [2] | IC50 (Cytochrome P450 2C8) | ΔTm [3] | IC50 [4] | IC50 [5] | half-life at 1 µM [6] | IC50 [7] | half-life at 1 µM [8] | half-life at 1 µM [10] | IC50 (Cytochrome P450 1A2) | ΔTm [12] | IC50 [13] | IC50 (Cytochrome P450 2D6) | IC50 [14] | IC50 [16] | IC50 [18] | IC50 (Cytochrome P450 3A4) | Compound | IC50 (AN3-CA) | other results
1 | 660 nM | > 10000 nM | 4.8 °C | > 10000 nM | 1.6 °C | 950 nM | 80 nM | > 60 min | 91 nM | > 60 min | > 30 min | > 10000 nM | 9.2 °C | 100 nM | > 10000 nM | 30 nM | 1500 nM | 62 nM | > 10000 nM | Nc1ncccc1-c1nc2cc(-c3cccnc3)cnc2n1-c1ccc(CNC(=O)c2ccccc2)cc1 | > 100000 nM | inhibition in vivo at 100 mg/kg (Mus musculus [9]): 25%; bioavailability [11]: 46%; concentration at 2 h [15]: 14100 nM; IC50 [17]: 8 nM; inhibition in vivo at 100 mg/kg (Mus musculus [19]): 82%; inhibition in vivo at 100 mg/kg (Mus musculus [20]): 76%; concentration at 2 h [21]: 8400 nM; IC50 (Cytochrome P450 2C9): > 10000 nM; IC50 (A2780): > 100000 nM
2 | 170 nM | 1000 nM | 7.7 °C | 1000 nM | 2.9 °C | 250 nM | 44 nM | > 30 min | 45 nM | > 30 min | > 30 min | > 10000 nM | 13 °C | 27 nM | > 10000 nM | 18 nM | 220 nM | 32 nM | > 10000 nM | CC(=O)Nc1cccc(-c2ccc3nc(-c4cccnc4N)n(-c4ccc(CNC(=O)c5cccc(F)c5)cc4)c3n2)c1 | 2000 nM | inhibition in vivo at 250 mg/kg (Mus musculus [22]): 86%; concentration at 2 h [23]: 2000 nM; Activity [24]: Active; concentration at 2 h [25]: 1200 nM; concentration at 4 h [26]: 1200 nM; inhibition in vivo at 250 mg/kg (Mus musculus [27]): 67%; inhibition in vivo at 250 mg/kg (Mus musculus [28]): 57%; concentration at 4 h [29]: 600 nM; inhibition in vivo at 250 mg/kg (Mus musculus [30]): 90%; IC50 (Cytochrome P450 2C9): 1000 nM; inhibition in vivo at 250 mg/kg (Mus musculus [31]): 62%; IC50 (A2780): 2200 nM; inhibition in vivo at 250 mg/kg (Mus musculus [32]): 51%; inhibition [33]: Active
